In brackets after ≈: the same amount, converted by molar mass.

Holding throughout (type): functional
Test [1] relates to Staphylococcus aureus. Kind of test: Antibacterial activity against erythromycin-susceptible Staphylococcus aureus ATCC 25923 by broth microdilution method. On the technique in general: Dilution methods test growth across graded concentrations, often in twofold steps.
Test [2] concerns Staphylococcus aureus. The experiment in a line: Antibacterial activity against erythromycin, methicillin-resistant Staphylococcus aureus A333 by broth microdilution method.
Test [3] deals with Haemophilus influenzae. Kind of test: Antibacterial activity against ampicillin-susceptible Haemophilus influenzae ATCC 49247 by broth microdilution method.
For test [4], the system named is Haemophilus influenzae. Kind of test: Antibacterial activity against ampicillin-resistant Haemophilus influenzae 3300 by broth microdilution method.
Test [5] relates to Streptococcus pneumoniae. Kind of test: Antibacterial activity against erythromycin-susceptible Streptococcus pneumoniae ATCC 49619 by broth microdilution method.
The subject of test [6] is Streptococcus pneumoniae. The experiment in a line: Antibacterial activity against erythromycin-resistant Streptococcus pneumoniae 3469 by broth microdilution method.
Test [7] deals with Staphylococcus aureus. The experiment in a line: Antibacterial activity against erythromycin-resistant, methicillin-susceptible Staphylococcus aureus A265 by broth microdilution method.

Take `CC[C@H]1OC(=O)[C@H](C)[C@@H](OC(=O)NCCc2ccc(OC)c(OC)c2)[C@H](C)[C@@H](O[C@@H]2O[C@H](C)C[C@H](N(C)C)[C@H]2O)[C@](C)(OC)C[C@@H](C)C(=O)[C@@H](C)[C@@H](OC)[C@]1(C)O`: the MIC was 2 µg/mL (≈ 2.47 µM) in the test with Staphylococcus aureus [1]; over 64 µg/mL in the test with Staphylococcus aureus [2]; 32 µg/mL (≈ 39.5 µM) in the test on Haemophilus influenzae [3]; 32 µg/mL (≈ 39.5 µM) with Haemophilus influenzae [4]; 0.125 µg/mL (≈ 0.154 µM) in the test with Streptococcus pneumoniae [5]; 0.25 µg/mL (≈ 0.308 µM) against Streptococcus pneumoniae [6]. Moreover, the MIC in the test on Staphylococcus aureus [7] worked out at 8 µg/mL (≈ 9.86 µM).

As to `CC[C@H]1OC(=O)[C@H](C)[C@@H](OC(=O)NCc2ccc(O)cc2)[C@H](C)[C@@H](O[C@@H]2O[C@H](C)C[C@H](N(C)C)[C@H]2O)[C@](C)(OC)C[C@@H](C)C(=O)[C@@H](C)[C@@H](OC)[C@]1(C)O`, the MIC was 1 µg/mL (≈ 1.33 µM) against Staphylococcus aureus [1]; over 64 µg/mL in the test on Staphylococcus aureus [2]; 1 µg/mL (≈ 1.33 µM) in the test on Haemophilus influenzae [3]; 1 µg/mL (≈ 1.33 µM) against Haemophilus influenzae [4]; 1 µg/mL (≈ 1.33 µM) in the test with Streptococcus pneumoniae [5]; 32 µg/mL (≈ 42.5 µM) in the test with Streptococcus pneumoniae [6]. Besides, the MIC in the test on Staphylococcus aureus [7] is 0.25 µg/mL (≈ 0.332 µM).

Turning to `CC[C@H]1OC(=O)[C@H](C)[C@@H](OC(=O)NCCc2ccccc2F)[C@H](C)[C@@H](O[C@@H]2O[C@H](C)C[C@H](N(C)C)[C@H]2O)[C@](C)(OC)C[C@@H](C)C(=O)[C@@H](C)[C@@H](OC)[C@]1(C)O`, the MIC was found to be 8 µg/mL (≈ 10.4 µM) against Staphylococcus aureus [1]; 64 µg/mL (≈ 83.2 µM) in the test with Staphylococcus aureus [2]; 16 µg/mL (≈ 20.8 µM) in the test on Haemophilus influenzae [3]; 16 µg/mL (≈ 20.8 µM) against Haemophilus influenzae [4]; 0.125 µg/mL (≈ 0.163 µM) against Streptococcus pneumoniae [5]; 0.125 µg/mL (≈ 0.163 µM) with Streptococcus pneumoniae [6]. This compound also returned an MIC with Staphylococcus aureus [7] of 16 µg/mL (≈ 20.8 µM).

As to `CC[C@H]1OC(=O)[C@H](C)[C@@H](OC(=O)NCCCO)[C@H](C)[C@@H](O[C@@H]2O[C@H](C)C[C@H](N(C)C)[C@H]2O)[C@](C)(OC)C[C@@H](C)C(=O)[C@@H](C)[C@@H](OC)[C@]1(C)O`, the MIC was 4 µg/mL (≈ 5.67 µM) with Staphylococcus aureus [1]; over 64 µg/mL in the test on Staphylococcus aureus [2]; 32 µg/mL (≈ 45.4 µM) in the test with Haemophilus influenzae [3]; 32 µg/mL (≈ 45.4 µM) in the test on Haemophilus influenzae [4]; 1 µg/mL (≈ 1.42 µM) in the test with Streptococcus pneumoniae [5]; 8 µg/mL (≈ 11.3 µM) against Streptococcus pneumoniae [6]. The compound further gave an MIC against Staphylococcus aureus [7] of 16 µg/mL (≈ 22.7 µM).

As to `CCCCOCCCNC(=O)O[C@H]1[C@H](C)[C@@H](O[C@@H]2O[C@H](C)C[C@H](N(C)C)[C@H]2O)[C@](C)(OC)C[C@@H](C)C(=O)[C@@H](C)[C@@H](OC)[C@](C)(O)[C@@H](CC)OC(=O)[C@@H]1C`, the MIC against Staphylococcus aureus [1] is 4 µg/mL (≈ 5.26 µM); with Staphylococcus aureus [2] it was over 64 µg/mL; against Haemophilus influenzae [3] it was 32 µg/mL (≈ 42 µM); against Haemophilus influenzae [4], 64 µg/mL (≈ 84.1 µM); against Streptococcus pneumoniae [5], 2 µg/mL (≈ 2.63 µM); against Streptococcus pneumoniae [6], over 64 µg/mL. This compound also displayed an MIC against Staphylococcus aureus [7] of 16 µg/mL (≈ 21 µM).

Consider `CC[C@H]1OC(=O)[C@H](C)[C@@H](OC(=O)NCc2ccco2)[C@H](C)[C@@H](O[C@@H]2O[C@H](C)C[C@H](N(C)C)[C@H]2O)[C@](C)(OC)C[C@@H](C)C(=O)[C@@H](C)[C@@H](OC)[C@]1(C)O`, for which the MIC is 2 µg/mL (≈ 2.75 µM) against Staphylococcus aureus [1]; over 64 µg/mL against Staphylococcus aureus [2]; 2 µg/mL (≈ 2.75 µM) against Haemophilus influenzae [3]; 2 µg/mL (≈ 2.75 µM) against Haemophilus influenzae [4]; 0.5 µg/mL (≈ 0.688 µM) in the test with Streptococcus pneumoniae [5]; 16 µg/mL (≈ 22 µM) in the test on Streptococcus pneumoniae [6]. This compound displayed an MIC against Staphylococcus aureus [7] of 1 µg/mL (≈ 1.38 µM).

Consider `CCCNC(=O)O[C@H]1[C@H](C)[C@@H](O[C@@H]2O[C@H](C)C[C@H](N(C)C)[C@H]2O)[C@](C)(OC)C[C@@H](C)C(=O)[C@@H](C)[C@@H](OC)[C@](C)(O)[C@@H](CC)OC(=O)[C@@H]1C`, for which the MIC was 2 µg/mL (≈ 2.9 µM) in the test with Staphylococcus aureus [1]; over 64 µg/mL in the test with Staphylococcus aureus [2]; over 64 µg/mL with Haemophilus influenzae [3]; 64 µg/mL (≈ 92.9 µM) with Haemophilus influenzae [4]; 0.125 µg/mL (≈ 0.181 µM) in the test on Streptococcus pneumoniae [5]; 0.125 µg/mL (≈ 0.181 µM) in the test with Streptococcus pneumoniae [6]. The compound also came in with an MIC against Staphylococcus aureus [7] of 1 µg/mL (≈ 1.45 µM).

For `CC[C@H]1OC(=O)[C@H](C)[C@@H](OC(=O)NCc2ccc(F)cc2)[C@H](C)[C@@H](O[C@@H]2O[C@H](C)C[C@H](N(C)C)[C@H]2O)[C@](C)(OC)C[C@@H](C)C(=O)[C@@H](C)[C@@H](OC)[C@]1(C)O`, the MIC with Staphylococcus aureus [1] was 4 µg/mL (≈ 5.3 µM); against Staphylococcus aureus [2], over 64 µg/mL; against Haemophilus influenzae [3], 4 µg/mL (≈ 5.3 µM); in the test on Haemophilus influenzae [4], 4 µg/mL (≈ 5.3 µM); against Streptococcus pneumoniae [5], 0.125 µg/mL (≈ 0.166 µM); in the test on Streptococcus pneumoniae [6], 0.125 µg/mL (≈ 0.166 µM). Besides, in the test on Staphylococcus aureus [7], the MIC amounted to 0.125 µg/mL (≈ 0.166 µM).

`CC[C@H]1OC(=O)[C@H](C)[C@@H](OC(=O)NCCc2ccccc2Cl)[C@H](C)[C@@H](O[C@@H]2O[C@H](C)C[C@H](N(C)C)[C@H]2O)[C@](C)(OC)C[C@@H](C)C(=O)[C@@H](C)[C@@H](OC)[C@]1(C)O`: the MIC was 4 µg/mL (≈ 5.09 µM) in the test on Staphylococcus aureus [1]; over 64 µg/mL with Staphylococcus aureus [2]; 8 µg/mL (≈ 10.2 µM) in the test on Haemophilus influenzae [3]; 16 µg/mL (≈ 20.4 µM) in the test with Haemophilus influenzae [4]; 0.125 µg/mL (≈ 0.159 µM) against Streptococcus pneumoniae [5]; 0.125 µg/mL (≈ 0.159 µM) in the test on Streptococcus pneumoniae [6]. Also, the MIC against Staphylococcus aureus [7] worked out at 1 µg/mL (≈ 1.27 µM).

Take `CC[C@H]1OC(=O)[C@H](C)[C@@H](OC(=O)NCCc2ccccc2)[C@H](C)[C@@H](O[C@@H]2O[C@H](C)C[C@H](N(C)C)[C@H]2O)[C@](C)(OC)C[C@@H](C)C(=O)[C@@H](C)[C@@H](OC)[C@]1(C)O`: the MIC in the test with Staphylococcus aureus [1] was 8 µg/mL (≈ 10.7 µM); against Staphylococcus aureus [2], over 64 µg/mL; in the test on Haemophilus influenzae [3], 4 µg/mL (≈ 5.33 µM); against Haemophilus influenzae [4], 4 µg/mL (≈ 5.33 µM); with Streptococcus pneumoniae [5], 4 µg/mL (≈ 5.33 µM); in the test with Streptococcus pneumoniae [6], 64 µg/mL (≈ 85.2 µM). The MIC in the test on Staphylococcus aureus [7] is 8 µg/mL (≈ 10.7 µM).

Turning to `CCOCCCNC(=O)O[C@H]1[C@H](C)[C@@H](O[C@@H]2O[C@H](C)C[C@H](N(C)C)[C@H]2O)[C@](C)(OC)C[C@@H](C)C(=O)[C@@H](C)[C@@H](OC)[C@](C)(O)[C@@H](CC)OC(=O)[C@@H]1C`, the MIC against Staphylococcus aureus [1] was 8 µg/mL (≈ 10.9 µM); against Staphylococcus aureus [2], over 64 µg/mL; against Haemophilus influenzae [3], 8 µg/mL (≈ 10.9 µM); against Haemophilus influenzae [4] it was 8 µg/mL (≈ 10.9 µM); with Streptococcus pneumoniae [5], 0.125 µg/mL (≈ 0.171 µM); against Streptococcus pneumoniae [6], 0.125 µg/mL (≈ 0.171 µM). The compound also gave an MIC against Staphylococcus aureus [7] of 8 µg/mL (≈ 10.9 µM).

Regarding `CC[C@H]1OC(=O)[C@H](C)[C@@H](OC(=O)NCCc2ccc(F)cc2)[C@H](C)[C@@H](O[C@@H]2O[C@H](C)C[C@H](N(C)C)[C@H]2O)[C@](C)(OC)C[C@@H](C)C(=O)[C@@H](C)[C@@H](OC)[C@]1(C)O`, the MIC in the test with Staphylococcus aureus [1] was found to be 2 µg/mL (≈ 2.6 µM); against Staphylococcus aureus [2], 32 µg/mL (≈ 41.6 µM); against Haemophilus influenzae [3], 8 µg/mL (≈ 10.4 µM); against Haemophilus influenzae [4] it was 8 µg/mL (≈ 10.4 µM); in the test with Streptococcus pneumoniae [5] it was 0.125 µg/mL (≈ 0.163 µM); with Streptococcus pneumoniae [6], 0.125 µg/mL (≈ 0.163 µM). This compound displayed an MIC against Staphylococcus aureus [7] of 2 µg/mL (≈ 2.6 µM).

In the case of `CC[C@H]1OC(=O)[C@H](C)[C@@H](OC(=O)NCc2ccc(OC)cc2)[C@H](C)[C@@H](O[C@@H]2O[C@H](C)C[C@H](N(C)C)[C@H]2O)[C@](C)(OC)C[C@@H](C)C(=O)[C@@H](C)[C@@H](OC)[C@]1(C)O`, the MIC is 0.125 µg/mL (≈ 0.163 µM) in the test with Staphylococcus aureus [1]; over 64 µg/mL in the test on Staphylococcus aureus [2]; 1 µg/mL (≈ 1.3 µM) in the test on Haemophilus influenzae [3]; 0.5 µg/mL (≈ 0.652 µM) in the test on Haemophilus influenzae [4]; 0.5 µg/mL (≈ 0.652 µM) in the test with Streptococcus pneumoniae [5]; 0.5 µg/mL (≈ 0.652 µM) against Streptococcus pneumoniae [6]. The compound further gave an MIC with Staphylococcus aureus [7] of 0.125 µg/mL (≈ 0.163 µM).

Take `CC[C@H]1OC(=O)[C@H](C)[C@@H](OC(=O)NCCc2ccc(O)cc2)[C@H](C)[C@@H](O[C@@H]2O[C@H](C)C[C@H](N(C)C)[C@H]2O)[C@](C)(OC)C[C@@H](C)C(=O)[C@@H](C)[C@@H](OC)[C@]1(C)O`: the MIC was 4 µg/mL (≈ 5.22 µM) in the test with Staphylococcus aureus [1]; over 64 µg/mL in the test with Staphylococcus aureus [2]; 8 µg/mL (≈ 10.4 µM) in the test with Haemophilus influenzae [3]; 8 µg/mL (≈ 10.4 µM) against Haemophilus influenzae [4]; 0.25 µg/mL (≈ 0.326 µM) against Streptococcus pneumoniae [5]; 0.25 µg/mL (≈ 0.326 µM) in the test with Streptococcus pneumoniae [6]. Moreover, the MIC against Staphylococcus aureus [7] worked out at 2 µg/mL (≈ 2.61 µM).

Regarding `CC[C@H]1OC(=O)[C@H](C)[C@@H](OC(=O)NC2CCCCC2)[C@H](C)[C@@H](O[C@@H]2O[C@H](C)C[C@H](N(C)C)[C@H]2O)[C@](C)(OC)C[C@@H](C)C(=O)[C@@H](C)[C@@H](OC)[C@]1(C)O`, the MIC in the test with Staphylococcus aureus [1] was 8 µg/mL (≈ 11 µM); against Staphylococcus aureus [2], over 64 µg/mL; against Haemophilus influenzae [3] it was 4 µg/mL (≈ 5.49 µM); in the test with Haemophilus influenzae [4], 4 µg/mL (≈ 5.49 µM); in the test with Streptococcus pneumoniae [5], 0.125 µg/mL (≈ 0.171 µM); against Streptococcus pneumoniae [6] it was 0.125 µg/mL (≈ 0.171 µM). The compound also displayed an MIC against Staphylococcus aureus [7] of 2 µg/mL (≈ 2.74 µM).

Values taken from ChEMBL document CHEMBL1240419, “Synthesis and antibacterial activity of 3-O-carbamoyl derivatives of 6,11-di-O-methylerythromycin A: a novel class of acylides” (2010).
